The source of these data is ChEMBL document CHEMBL3351689, “The discovery of indole full agonists of the neurotensin receptor 1 (NTSR1)” (Bioorg Med Chem Lett, 2014).

Some results are limits rather than exact numbers.

The target of the first test is T1, Neurotensin receptor type 1 (Homo sapiens, UniProt P30989). Description: Antagonist activity at NTSR1 (unknown origin) expressed in CHO cells assessed as inhibition of NT(8-13) peptide-induced change in intracellular Ca2+ level preincubated for 45 mins by FLIPR assay. Type of test: functional, cell-based.
T1 sequence (P30989 whole entry): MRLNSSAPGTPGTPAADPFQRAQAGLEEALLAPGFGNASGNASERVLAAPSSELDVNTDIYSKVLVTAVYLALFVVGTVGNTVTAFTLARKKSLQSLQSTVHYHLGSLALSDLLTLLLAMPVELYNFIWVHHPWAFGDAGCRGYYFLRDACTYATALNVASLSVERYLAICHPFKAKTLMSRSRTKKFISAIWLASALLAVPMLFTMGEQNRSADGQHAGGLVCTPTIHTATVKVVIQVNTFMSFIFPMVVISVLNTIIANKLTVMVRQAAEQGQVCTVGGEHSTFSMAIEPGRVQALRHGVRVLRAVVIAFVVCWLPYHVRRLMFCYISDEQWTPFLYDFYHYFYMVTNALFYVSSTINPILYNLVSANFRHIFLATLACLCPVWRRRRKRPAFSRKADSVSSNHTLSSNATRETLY
The IC50 is the concentration that inhibits the measured activity by half. Take `COc1cccc(OC)c1-c1cc(C(=O)NC2(C(=O)O)C3CC4CC(C3)CC2C4)nn1-c1ccnc2cc(Cl)ccc12` (centres undefined) [REMINERTANT]: the IC50 was 0.082 µM. Same read-out and setting: the value for `COc1cccc(OC)c1-c1cc(C(=O)NC2(C(=O)O)C3CC4CC(C3)CC2C4)nn1-c1ccc(C(=O)N(C)CCCN(C)C)cc1C(C)C` (centres undefined) was 0.004 µM.

A further test has as its target T1, Neurotensin receptor type 1. Description: Agonist activity at NTSR1 (unknown origin) expressed in CHO cells assessed as potentiation of NT(8-13) peptide-induced change in intracellular Ca2+ level preincubated for 45 mins by FLIPR assay. The format is functional, cell-based.
A word on the EC50: it is the concentration needed to bring the measured effect to its halfway point. Regarding `COC(=O)[C@H](CC(C)C)NC(=O)Cn1ccc2cc(-c3cnc4ccccc4c3)ccc21`, the EC50 is more than 100 µM. The same measure, in the same setting: next, `CC(C)C[C@H](NC(=O)Cn1ccc2cc(-c3cccc4ccccc34)ccc21)C(=O)O`: 3.26 µM; `COC(=O)[C@@H](CC(C)C)NC(=O)Cn1ccc2cc(-c3cnc4ccccc4c3)ccc21`: more than 100 µM; `CC(C)C[C@@H](NC(=O)Cn1ccc2cc(-c3cccc4ccccc34)ccc21)C(=O)O`: more than 100 µM. Still for that read-out and setting: the value for `CC(C)C[C@H](NC(=O)Cn1ccc2cc(NS(=O)(=O)c3cccc4cccnc34)ccc21)C(=O)O` was 8.99 µM; that for `CC(C)C[C@H](NC(=O)Cn1ccc2cc(N(Cc3ccnc4ccccc34)Cc3ccnc4ccccc34)ccc21)C(=O)O` was 2.12 µM.

Regarding `CC(C)C[C@H](NC(=O)Cn1ccc2ccc(-c3cccc4ccccc34)cc21)C(=O)O`, the EC50 was found to be 2.85 µM. The same measure, in the same setting: next, `CC(C)C[C@H](NC(=O)Cn1ccc2cc(Nc3ccc4cnccc4c3)ccc21)C(=O)O`: 7.72 µM; `CC(C)C[C@H](NC(=O)Cn1ccc2ccc(-c3cnc4ccccc4c3)cc21)C(=O)O`: 3.28 µM.

Regarding `CC(C)C[C@H](NC(=O)Cn1ccc2cc(-c3cnc4ccccc4c3)ccc21)C(=O)O`, the EC50 is 2.05 µM.

Consider `CC(C)C[C@H](NC(=O)Cn1ccc2cc(-c3cccnc3)ccc21)C(=O)O`, for which the EC50 amounted to 15.4 µM. Same read-out and setting: next, `CC(C)C[C@H](NC(=O)Cn1ccc2cc(-c3cncc4ccccc34)ccc21)C(=O)O`: 3.24 µM. With `CC(C)C[C@H](NC(=O)Cn1ccc2cc(Br)ccc21)C(=O)O`, the concentration for a half-maximal effect (EC50) was determined as 9.99 µM. For `CC(C)C[C@H](NC(=O)Cn1ccc2cc(NS(=O)(=O)c3cccc4ccccc34)ccc21)C(=O)O`, the EC50 came to 9.39 µM.

Consider `O=C(O)CNC(=O)Cn1ccc2cc(-c3cccc4ccccc34)ccc21`, for which the EC50 was more than 100 µM. For the compound `C[C@H](NC(=O)Cn1ccc2cc(-c3cnc4ccccc4c3)ccc21)C(=O)O`, the EC50 is more than 100 µM.

Take `CC(C)C[C@H](NC(=O)Cn1ccc2cc(-c3cccc4cnccc34)ccc21)C(=O)O`: the EC50 was 4.96 µM. The same measure, in the same setting: the value for `O=C(O)CNC(=O)Cn1ccc2cc(-c3cnc4ccccc4c3)ccc21` was more than 100 µM. For the compound `COC(=O)[C@@H](CC(C)C)NC(=O)Cn1ccc2cc(-c3cccc4ccccc34)ccc21`, the EC50 is more than 100 µM. The same measure, in the same setting: the value for `CC(C)C[C@H](NC(=O)Cn1ccc2cc(-c3cnc4ccccc4c3)ccc21)c1nn[nH]n1` was 5.17 µM. Still for that read-out and setting: next, `COC(=O)[C@H](CC(C)C)NC(=O)Cn1ccc2cc(-c3cccc4ccccc34)ccc21`: more than 100 µM; `CC(C)C[C@H](NC(=O)Cn1ccc2ccccc21)C(=O)O`: 6.65 µM; `CC(C)C[C@H](NC(=O)Cn1ccc2cc(N)ccc21)C(=O)O`: 25.8 µM.

Turning to `CC(C)[C@H](NC(=O)Cn1ccc2cc(-c3cccc4ccccc34)ccc21)C(=O)O`, the EC50 was more than 100 µM. The same measure, in the same setting: the value for `O=C(Cn1ccc2cc(-c3cnc4ccccc4c3)ccc21)N[C@@H](Cc1ccccc1)C(=O)O` was 4.33 µM. For the compound `CC(C)C[C@H](NC(=O)Cn1ccc2cc(-c3ccccc3)ccc21)C(=O)O`, the EC50 is 9.44 µM.

As for `CC(C)C[C@@H](NC(=O)Cn1ccc2cc(-c3cnc4ccccc4c3)ccc21)C(=O)O`, the EC50 is more than 100 µM. On the same count and under the same terms, the value for `CC(C)C[C@H](NC(=O)Cn1ccc2cc(NC(=O)c3ccnc4ccccc34)ccc21)C(=O)O` was 55.1 µM. The same measure, in the same setting: the value for `CC(C)C[C@@H](CO)NC(=O)Cn1ccc2cc(-c3cnc4ccccc4c3)ccc21` was more than 100 µM; that for `CC(C)C[C@H](NC(=O)Cn1ccc2ccc(-c3cncc4ccccc34)cc21)C(=O)O` was 7.46 µM; that for `CC(C)[C@H](NC(=O)Cn1ccc2cc(-c3cnc4ccccc4c3)ccc21)C(=O)O` was more than 100 µM. On the same count and under the same terms, the value for `COc1cccc(CC(=O)Nc2ccc3c(ccn3CC(=O)N[C@@H](CC(C)C)C(=O)O)c2)c1` was 24.2 µM.
